Measurements from patent US10519099B2, “Cystobactamides” (priority 2014, dated 2019).
In brackets after ≈: the same amount, converted by molar mass. Positions of bridges follow the written chain, without caps; N, C: chain ends. Non-standard residues stand in square brackets, D forms with d. Residues, ends and D or L forms follow the SMILES beside them. *: point of attachment. Ileψ(thiazoline)Cys = CC[C@H](C)[C@H](N)C1=N[C@H](C(=O)*)CS1; dOrn = NCCC[C@@H](N)C(=O)O

What was measured:
[1] = tested on: P. aeruginosa DSM-24600 (ESBL); test: MIC microdilution, P. aeruginosa DSM-24600 (ESBL); format: cell-based, Pseudomonas aeruginosa; conditions: Pseudomonas aeruginosa, DSM24600; Gram-negative set; read-out: MIC P. aeruginosa DSM-24600 (ESBL)
Method: (§1) Indicator strains used in susceptibility assays were either part of our strain collection or purchased from the German Collection of Microorgansims and Cell Cultures (DSMZ) or from the American Type Culture Collection (ATCC). E. coli strain WT and corresponding E. coli mutants were kindly provided by Prof. Dr. P. Heisig, Pharmaceutical Biology and Microbiology, University of Hamburg. E. coli strains JW0401-1 (WT) and Δtsx were obtained from the CGSC collection.
(§2) MIC values were determined in standardized microdilution assays. Overnight cultures were diluted in the appropriate growth medium to achieve an inoculum of 10^4-10^6 cfu/mL. Yeasts were grown in Myc medium (1% phytone peptone, 1% glucose, 50 mM HEPES, pH 7.0), S. pneumonia and Enterococcus spp. in tryptic soy broth (TSB: 1.7% peptone casein, 0.3% peptone soymeal, 0.25% glucose, 0.5% NaCl, 0.25% K2HPO4; pH 7.3); M. smegmatis in Middlebrook 7H9 medium supplemented with 10% Middlebrook ADC enrichment and 2 ml/I glycerol). All other listed bacteria were grown in Müller-Hinton broth (0.2% beef infusion solids, 1.75% casein hydrolysate, 0.15% starch, pH 7.4). Cystobactamides and reference drugs were added directly to the cultures in sterile 96-well plates as duplicates and serial dilutions were prepared. Microorganisms were grown on a microplate shaker (750 rpm, 30-37° C., 18-48 h), except S. pneumonia, which was grown at non-shaking conditions (37° C., 5% CO2, 18 h). Growth inhibition was assessed by visual inspection and the MIC was defined as the lowest concentration of compound that inhibited visible growth.

[2] = tested on: E. coli DSM-26863 (tolC3); test: MIC microdilution, E. coli DSM-26863 (tolC3); format: cell-based, Escherichia coli; conditions: Escherichia coli, DSM26863, read-out: MIC E. coli DSM-26863 (tolC3)
Method: as §1, §2

[3] = tested on: Proteus vulgaris DSM-2140; test: MIC microdilution, P. vulgaris DSM-2140; format: cell-based; conditions: Proteus vulgaris, DSM2140; Gram-negative set; read-out: MIC P. vulgaris DSM-2140
Method: as §1, §2

[4] = tested on: E. coli WT-3 [gyrA(S83L, D87G)]; test: MIC microdilution, E. coli WT-3 [gyrA(S83L, D87G)]; format: cell-based, Escherichia coli; conditions: Escherichia coli, read-out: MIC E. coli WT-3 [gyrA(S83L, D87G)]
Method: as §1, §2

[5] = tested on: E. coli WT-III [marRΔ74bp]; test: MIC microdilution, E. coli WT-III [marRΔ74bp]; format: cell-based, Escherichia coli; conditions: Gram-negative set
Method: as §1, §2

E. coli WT = test: MIC microdilution, E. coli WT; format: cell-based, Escherichia coli; conditions: Escherichia coli; Gram-negative set; read-out: MIC E. coli WT
Method: as §1, §2

[6] = tested on: Citrobacter freundii DSM-30039; test: MIC microdilution, C. freundii DSM-30039; format: cell-based; conditions: Citrobacter freundii, DSM30039; Gram-negative set; read-out: MIC C. freundii DSM-30039
Method: as §1, §2

[7] = tested on: Acinetobacter baumannii DSM-30008; test: MIC microdilution, A. baumannii DSM-30008; format: cell-based; conditions: Acinetobacter baumannii, DSM30008; Gram-negative set; read-out: MIC A. baumannii DSM-30008
Method: as §1, §2

E. coli DSM-1116 = test: MIC microdilution, E. coli DSM-1116; format: cell-based, Escherichia coli; conditions: Escherichia coli, DSM1116; Gram-negative set; read-out: MIC E. coli DSM-1116
Method: as §1, §2

[8] = tested on: Cystobacter velatus MCy8071; test: Antibiotic resistance of producer strain MCy8071; format: cell-based; conditions: final concentration 50 μg ml^−1
Method: MCy8071 is resistant against the following antibiotics: ampicillin, gentamycin, hygromycin, polymycin, bacitracin, spectinomycin, neomycin, and fusidinic acid. Weak growth is possible with cephalosporin and kasugamycin and no growth is possible with thiostrepton, trimethoprin, kanamycin, and oxytetracycline (final concentration of all antibiotics was adjusted to 50 μg ml^−1).

In the case of `CCOc1cc(C(=O)O)ccc1NC(=O)c1ccc(NC(=O)c2ccc(NC(=O)C(NC(=O)c3ccc(NC(=O)c4ccc([N+](=O)[O-])cc4)cc3)C(OC)C(N)=O)cc2)c(OC(C)C)c1O` (stereo not shown) [Cys 905-2], the MIC [1] is reported as > 64 µg/mL, the MIC [2] is reported as 2 µg/mL (≈ 2.21 µM) and the MIC [3] is reported as 32 µg/mL (≈ 35.3 µM). The MIC [4] was > 64 µg/mL, the “MIC E. coli WT-III [marRΔ74bp]” value [5] was >64 µg/mL and the MIC (E. coli WT) was 4 µg/mL (≈ 4.42 µM). For the same compound, the MIC [6] was 8 µg/mL (≈ 8.83 µM), the MIC [7] was 64 µg/mL (≈ 70.7 µM) and the MIC (E. coli DSM-1116) was 8 µg/mL (≈ 8.83 µM).

With `COC(C(=O)O)C(NC(=O)c1ccc(NC(=O)c2ccc([N+](=O)[O-])cc2)cc1)C(=O)Nc1ccc(C(=O)Nc2ccc(C(=O)Nc3ccc(C(=O)O)cc3OC(C)C)c(O)c2OC(C)C)cc1` (stereo not shown) [Cys 920-1] the MIC [1] was > 64 µg/mL, the MIC [2] was 64 µg/mL (≈ 69.5 µM) and the MIC [3] was > 64 µg/mL. The MIC [4] was > 64 µg/mL, the “MIC E. coli WT-III [marRΔ74bp]” value [5] was >64 µg/mL and the MIC (E. coli WT) was > 64 µg/mL. For the same compound, the MIC [6] was > 64 µg/mL, the MIC [7] was > 64 µg/mL and the MIC (E. coli DSM-1116) was > 64 µg/mL.

`CCC(C)Oc1cc(C(=O)O)ccc1NC(=O)c1ccc(NC(=O)c2ccc(NC(=O)C(OC)C(NC(=O)c3ccc(NC(=O)c4ccc([N+](=O)[O-])cc4)cc3)C(=O)O)cc2)c(OC(C)C)c1O` (stereo not shown) [Cys 934-2] was tested, and the MIC [1] was > 64 µg/mL, the MIC [2] was 32 µg/mL (≈ 34.2 µM) and the MIC [3] was > 64 µg/mL. The MIC [4] was > 64 µg/mL, the “MIC E. coli WT-III [marRΔ74bp]” value [5] was >64 µg/mL and the MIC (E. coli WT) was > 64 µg/mL. For the same compound, the MIC [6] was > 64 µg/mL, the MIC [7] was > 64 µg/mL and the MIC (E. coli DSM-1116) was > 64 µg/mL.

Work on `COC(C(N)=O)C(NC(=O)c1ccc(NC(=O)c2ccc([N+](=O)[O-])cc2)cc1)C(=O)Nc1ccc(C(=O)Nc2ccc(C(=O)Nc3ccc(C(=O)O)c(O)c3OC(C)C)c(O)c2OC(C)C)cc1` (stereo not shown) [Cys 935-2] yielded an MIC [1] of 8 µg/mL (≈ 8.55 µM), an MIC [2] of 0.25 µg/mL (≈ 0.267 µM) and an MIC [3] of 1 µg/mL (≈ 1.07 µM). The MIC [4] was 2 µg/mL (≈ 2.14 µM), the “MIC E. coli WT-III [marRΔ74bp]” value [5] was 2 µg/mL (≈ 2.14 µM) and the MIC (E. coli WT) was 0.5 µg/mL (≈ 0.534 µM). The MIC [6] was 1 µg/mL (≈ 1.07 µM), the MIC [7] was 2 µg/mL (≈ 2.14 µM) and the MIC (E. coli DSM-1116) was 0.5 µg/mL (≈ 0.534 µM).

With `CC1(C)S[C@@H]2[C@H](NC(=O)[C@H](N)c3ccccc3)C(=O)N2[C@H]1C(=O)O` [ampicillin] the “growth of strain MCy8071 in presence of antibiotic” value (shortened to “growth of strain MCy8071”) [8] was “resistant”.

In the case of `CC[C@H](C)[C@H](N)C1=N[C@H](C(=O)N[C@@H](CC(C)C)C(=O)N[C@H](CCC(=O)O)C(=O)N[C@H](C(=O)N[C@H]2CCCCNC(=O)[C@H](CC(N)=O)NC(=O)[C@@H](CC(=O)O)NC(=O)[C@H](Cc3cnc[nH]3)NC(=O)[C@@H](Cc3ccccc3)NC(=O)[C@H]([C@@H](C)CC)NC(=O)[C@@H](CCCN)NC2=O)[C@@H](C)CC)CS1` [bacitracin] ({Ileψ(thiazoline)Cys}-L[dE]IK[dOrn]I[dF]H[dD]N; lactam 4-C), the “growth of strain MCy8071” value [8] is reported as “resistant”.

For `CC(=O)O[C@H]1C[C@@]2(C)[C@@H](C[C@@H](O)[C@H]3[C@@]4(C)CC[C@@H](O)[C@@H](C)[C@@H]4CC[C@@]32C)/C1=C(\CCC=C(C)C)C(=O)O` [fusidinic acid], the “growth of strain MCy8071” value [8] was “resistant”.

In the case of `C[C@H]1O[C@H](O[C@H]2[C@H](O)[C@@H](O)[C@@H](O)[C@H](O)[C@@H]2O)[C@@H](N)C[C@@H]1NC(=N)C(=O)O` [kasugamycin], the “growth of strain MCy8071” value [8] is reported as “Weak growth”.

With `CN[C@@H]1[C@H](O)[C@H](NC)[C@H]2O[C@@]3(O)C(=O)C[C@@H](C)O[C@H]3O[C@@H]2[C@H]1O` [spectinomycin] the “growth of strain MCy8071” value [8] was “resistant”.

`C=C(NC(=O)C(=C)NC(=O)c1csc(C2=N[C@@H]3c4csc(n4)[C@H]4NC(=O)c5csc(n5)[C@H]([C@](C)(O)[C@@H](C)O)NC(=O)[C@H]5CSC(=N5)/C(=C/C)NC(=O)[C@H]([C@@H](C)O)NC(=O)c5csc(n5)[C@]3(CC2)NC(=O)[C@H](C)NC(=O)C(=C)NC(=O)[C@H](C)NC(=O)[C@H]([C@@H](C)CC)N[C@@H]2C=Cc3c([C@H](C)O)cc(nc3[C@H]2O)C(=O)O[C@@H]4C)n1)C(N)=O` [thiostrepton] was tested, and the “growth of strain MCy8071” value [8] was “no growth”.

With `COc1cc(Cc2cnc(N)nc2N)cc(OC)c1OC` [trimethoprin] the “growth of strain MCy8071” value [8] was “no growth”.

With gentamycin the “growth of strain MCy8071” value [8] was “resistant”.

In the case of neomycin, the “growth of strain MCy8071” value [8] is reported as “resistant”.

polymycin was tested, and the “growth of strain MCy8071” value [8] was “resistant”.
